The nature of one data set: Solubility in 1% DMF/PBS. The text has this:
Solubility is an important factor for the application of metallodrugs. DMF was used as solubilizer to allow comparison to the respective chlorido complexes where the usage of DMSO would lead to stable DMSO adducts.
(§1) As the coordinated p-cym and leaving groups are present in all synthesized complexes, we focused on the differently substituted 4-phenylthiazoles for estimated changes in lipophilicity.

The next data set relates to SW480 cancer cells. Kind of data set: Cellular accumulation (ICP-MS) in SW480 cells. The following applies: 50 μM, 0.5% DMF in MEM, SW480, exposure time 2 h. Here is the method: as §1
Cellular accumulation of the compounds was studied based on a method described previously with modifications. 1.8 × 10^5 SW480 cells per well were seeded in aliquots of 1 mL of complete MEM (see above) into 12-well plates (CytoOne, tissue culture treated, Starlab) and incubated at 37°C for 24 h. Then, cells were exposed for 2 h at 37°C to 50 μM solutions of the test compounds (containing 0.5% DMF) in fresh 0.5 mL of complete MEM upon exchange of the medium. Afterward, cells were washed three times with 1 mL PBS per well, lysed with 0.4 mL sub-boiled HNO3 per well for 1 h at room temperature, and 0.3 mL of each sample was diluted with 7.7 mL Milli-Q water. Adsorption/desorption controls were prepared in the same manner in cell-free wells. Ruthenium content was quantified by ICP-MS using an ICP-quadrupole MS Agilent 7800 instrument (Agilent Technologies, Waldbronn, Germany) as described previously.

The test system of data set [1] is CH1/PA-1 ovarian teratocarcinoma cells. Kind of data set: MTT assay, inhibition of cancer cell growth, CH1/PA-1. The following applies: read-out: 50% inhibitory concentration CH1, exposure time 96 h. For orientation: Tetrazolium dyes change colour on reduction, which living cells bring about.
Procedure: (§2) CH1/PA-1 ovarian teratocarcinoma cells (CH1, RRID: CVCL_4992, provided by L. R. Kelland, CRC Center for Cancer Therapeutics, Institute of Cancer Research, Sutton, UK; confirmed by STR profiling as PA-1 ovarian teratocarcinoma cells at Multiplexion, Heidelberg, Germany), SW480 colon adenocarcinoma (RRID: CVCL_0546), and A549 lung adenocarcinoma cells (NCI-H2618, RRID: CVCL_A549; both cell lines were obtained from the American Type Culture Collection (ATCC), Manassas, VA, USA) were grown as adherent cultures in 75-cm^2 culture flasks (Starlab, Hamburg, Germany) by using minimal essential medium (MEM) supplemented with 1 mM sodium pyruvate, 4 mM L-glutamine, 1% (v/v) nonessential amino acids from 100-fold stock (all purchased from Sigma-Aldrich), and 10% heat-inactivated fetal bovine serum (Serana, Pessin, Germany).
(§3) The 3-(4,5-dimethylthiazol-2-yl)-2,5-diphenyl-2H tetrazolium bromide (MTT, Acros Organics, Geel, Belgium) assay was used to detect the cytotoxicity of the compounds after 96-h incubation. For this purpose, cells were harvested from culture flasks by trypsinization, seeded in 100-μL aliquots into 96-well microculture plates (Starlab, UK) in densities of 1 × 10^3 (CH1/PA-1), 2 × 10^3 (SW480), and 3 × 10^3 (A549) cells per well and incubated for 24 h prior to exposure to the test compounds. Stock solutions of test compounds were prepared in DMF, which were then diluted in MEM (not to exceed a final content of 0.5% v/v of organic solvent in the test plates), and serial dilutions were added in aliquots of 100 μL per well. […] After incubation for 4 h, the medium/MTT mixtures were removed, and the produced formazan crystals were dissolved in 150 μL DMSO per well. Optical densities at 550 nm were measured spectrophotometrically with a ELx808 Absorbance Microplate Reader (Bio-Tek, Winooski, VT, USA) by using a reference wavelength of 690 nm to correct for unspecific absorption.
Data set [2] concerns A549 lung adenocarcinoma cells. The experiment in a line: MTT assay, inhibition of cancer cell growth, A549. The following applies: read-out: 50% inhibitory concentration A549, exposure time 96 h.
Procedure: as §2, §3
The subject of data set [3] is SW480 colon adenocarcinoma cells. The experiment in a line: MTT assay, inhibition of cancer cell growth, SW480. The following applies: read-out: 50% inhibitory concentration SW480, exposure time 96 h.
Procedure: as §2, §3
Data set [4] relates to A549 lung adenocarcinoma cells. On the set-up: method as in PMID 38426897. The following applies: MTT assay, exposure time 96 h; ref [5]; read-out: 50% inhibitory concentration A549 (chlorido complexes, reference) (converted); cited from earlier work.
Data set [5] relates to SW480 colon adenocarcinoma cells. On the set-up: method as in PMID 38426897. The following applies: MTT assay, exposure time 96 h; ref [5]; read-out: 50% inhibitory concentration SW480 (chlorido complexes, reference) (converted); cited from earlier work.
The subject of data set [6] is CH1/PA-1 ovarian teratocarcinoma cells. On the set-up: method as in PMID 38426897. The following applies: MTT assay, exposure time 96 h; ref [5]; read-out: 50% inhibitory concentration CH1 (chlorido complexes, reference) (converted); cited from earlier work.
Data set [7] deals with HCT116 colorectal cancer cell line (2D). The experiment in a line: Resazurin assay, HCT116 2D (monolayer) culture. The following applies: read-out: IC50 2D, resazurin assay, 96 h exposure.
Procedure: (§4) Both models were investigated by the fluorimetric resazurin assay after 96-h exposure.
(§5) HCT116 colorectal carcinoma cells (RRID:CVCL_0291 from ATCC) were cultivated in McCoy's 5A medium, supplemented with 10% heat-inactivated fetal bovine serum and 4 mM L-glutamine.
(§6) For 2D experiments, HCT116 cells were harvested from culture flasks by trypsinization, seeded in 100-μL aliquots into 96-well microculture plates (CytoOne, TC-treated, from Starlab) in densities of 2 × 10^3 cells per well, and incubated for 24 h prior to exposure to the test compounds. […] Stock solutions of test compounds were prepared in DMF, which were then diluted in McCoy's 5A-supplemented medium (not to exceed a final content of 0.5% v/v of organic solvent in the test plates), and serial dilutions were added in aliquots of 100 μL per well. […] After incubation for 4 h, fluorescence was measured with a microplate reader (Bio-Tek, SynergyHT) at a wavelength of 530 nm, additionally using a reference wavelength of 620 nm.
A further data set relates to SW480 cells. Kind of data set: DCFH-DA assay, cellular ROS levels. The class given is cell-based, human. The following applies: for Effect on intracellular ROS levels: 2 h, concentration dependent. How it is done: For this approach, SW480 cells were subjected to the 2′,7′-dichlorofluorescin-diacetate (DCFH-DA) assay.
SW480 colon adenocarcinoma cells were trypsinized for 5 min in a humidified incubator at 37°C and under a 5% CO2 atmosphere. Supplemented MEM was added to stop trypsinization, and cells were centrifuged for 3 min at 1200 rpm (Heraeus Megafuge 1.0R). After cell counting, SW480 cells were seeded in 100-μL aliquots in densities of 2.5 × 10^4 cells/well into 96-well clear flat-bottom microplates (CytoOne, TC-treated, from Starlab). After incubation for 24 h, cells were washed with 200 μL of Hanks' balanced salt solution (HBSS; Sigma-Aldrich; supplemented with 1% heat-inactivated FCS). […] After washing cells with 200 μL of supplemented HBSS, serially diluted test compounds in phenol-red-free Opti-MEM (Gibco), supplemented with 1% heat-inactivated FCS, were added in 200-μl triplicates and tert-butyl hydroperoxide (TBHP) was applied as positive control. […] Blank-corrected values were calculated relative to negative controls (treated with drug-free supplemented Opti-MEM) from three independent experiments.

Data set [8] concerns HCT116 multicellular tumor spheroids (3D). The experiment in a line: Resazurin assay, HCT116 3D multicellular tumor spheroids. The following applies: read-out: IC50 3D; HCT116 3D spheroids, resazurin assay, 96 h exposure. Background: Alamar Blue is a resazurin reagent that responds to reducing activity.
Procedure: as §4, §5, §6
Data set [9] concerns G4 forming sequences (h-Telo, bcl2, hTERT, Kit1, Kit2) and dsDNA. The experiment in a line: FRET melting assay, G-quadruplex / B-DNA interaction. The class given is binding, human. The following applies: 60 mM potassium cacodylate pH 7.4, 2 h incubation. Here is the method: G4s are DNA secondary motifs that play crucial roles in cancer development. […] The complexes were incubated with different G4 forming sequences: one derived from human telomere-forming (h-Telo) and four corresponding to promoter regions of oncogenes, namely, bcl2, hTERT, Kit1, and Kit2. For comparison, a self-complementary sequence called dsDNA was used to represent B-DNA (Table S2).
FRET experiments were conducted using an Applied Biosystems QuantStudio 6 PCR cycler in a 96-well format equipped with a FAM (6-carboxyfluorescein) filter. Oligonucleotide stock solutions, labelled with FAM and TAMRA (6-carboxytetramethylrhodamine) probes, were diluted to the desired concentration in a 60-mM potassium cacodylate buffer (pH 7.4). To fold the oligonucleotides into their B-DNA or G4 topologies, the solutions were heated to 95°C for 5 min and then allowed to cool slowly to room temperature overnight. The final concentration of the oligonucleotides was 0.2 μM, with a total volume of 30 μL in each well. Metal complexes were dissolved in DMF to prepare 2 mM stock solutions and further diluted with the buffer, where DMF concentration never exceeded 0.05%. Mixtures of oligonucleotides and metal compounds were left at room temperature for 2 h. Data were collected twice, each time in duplicate, over a temperature range of 25°C–95°C, with a ramp of 1°C every 30 s. FAM emission data were normalized from 0 to 1 to compare different datasets. After data normalization, we extrapolated the T1/2 values, i.e., the temperature at which normalized FAM emission is 0.5. The DNA concentration is expressed in strands.

Read-outs that look alike come from different tables or passages of the source.

The Solubility is the concentration that dissolves in the medium under given conditions. Low readings indicate a poorly soluble substance, high ones a readily soluble substance. Molecule `Cc1ccc(C(C)C)cc1.Cn1cc[n+]([Ru-]2[c]3cc(F)ccc3-c3csc[n+]32)c1.O=[N+]([O-])[O-]` [Compound 3b, [((3-κN)-1-Methylimidazole)(4-(4-fluorophenyl)thiazolato-κN,κC2′)(η^6-p-cymene)ruthenium(II)] Nitrate] registered a Solubility in the data set “Solubility in 1% DMF/PBS” of 8.82 mM. Also, the “Cellular accumulation, fg Ru/cell” value with SW480 cancer cells amounted to 470 ± 71 fg Ru/cell. Further, the IC50 in data set [1] came out at 2.8 ± 0.2 µM; in data set [2], 20 ± 3 µM; in [3] it was 7.9 ± 1.5 µM.
On to `CS(=O)(=O)c1ccc(-c2cscn2)[c]([Os][Cl])c1.Cc1ccc(C(C)C)cc1` [Compound 2c], for which the IC50 in [4] was 10 µM; in data set [5], 4.4 µM; in data set [6], 0.83 µM.
Consider `Cc1ccc(C(C)C)cc1.Cc1ccc2[c](c1)[Os-]([n+]1ccn(C)c1)[n+]1cscc1-2.O=[N+]([O-])O` [Compound 4d, [((3-κN)-1-Methylimidazole)(4-(4-methylphenyl)thiazolato-κN,κC2′)(η^6-p-cymene)osmium(II)] Nitrate], for which the IC50 amounted to 1.2 ± 0.2 µM in data set [1], 7.1 ± 0.6 µM in data set [2] and 3.4 ± 0.9 µM in data set [3].
For the molecule `Cc1ccc(C(C)C)cc1.Fc1ccc(-c2cscn2)[c]([Os][Cl])c1` [Compound 2b], the IC50 is 10 µM in data set [4], 7.1 µM in [5] and 2 µM in data set [6].
Regarding `COc1ccc2[c](c1)[Os-]([n+]1ccn(C)c1)[n+]1cscc1-2.Cc1ccc(C(C)C)cc1.O=[N+]([O-])O` [Compound 4e, [((3-κN)-1-Methylimidazole)(4-(4-methoxyphenyl)thiazolato-κN,κC2′)(η^6-p-cymene)osmium(II)] Nitrate], the IC50 in data set [1] amounted to 2.1 ± 0.5 µM; in data set [2], 24 ± 1 µM; in [3], 8.1 ± 2.6 µM.
For the molecule `COc1ccc2[c](c1)[Ru-]([n+]1ccn(C)c1)[n+]1cscc1-2.Cc1ccc(C(C)C)cc1.O=[N+]([O-])[O-]` [Compound 3e, [((3-κN)-1-Methylimidazole)(4-(4-methoxyphenyl)thiazolato-κN,κC2′)(η^6-p-cymene)ruthenium(II)] Nitrate], the Solubility in the data set “Solubility in 1% DMF/PBS” came out at 15.6 mM. Also, in the data set with SW480 cancer cells, the “Cellular accumulation, fg Ru/cell” value stood at 246 ± 47 fg Ru/cell. The IC50 in data set [1] was 1.8 ± 0.3 µM; in data set [2], 14 ± 1 µM; in data set [3] it was 5.5 ± 2.2 µM.
For `Cc1ccc(C(C)C)cc1.Fc1ccc(-c2cscn2)[c]([Ru][Cl])c1` [Compound 1b], the values for the IC50 in data set [4], in data set [5] and in data set [6] were 16 µM, 8.6 µM and 3.4 µM, respectively.
For the molecule `Cc1ccc(C(C)C)cc1.[Cl][Os][c]1ccccc1-c1cscn1` [Compound 2a], the IC50 in data set [4] is 17 µM; in data set [5], 9.3 µM; in data set [6], 3 µM.
As to `COc1ccc(-c2cscn2)[c]([Os][Cl])c1.Cc1ccc(C(C)C)cc1` [Compound 2e], the results for the IC50 in data set [4], in [5] and in data set [6] were 14 µM, 7.1 µM and 2.2 µM, respectively.
For the molecule `Cc1ccc(C(C)C)cc1.Cn1cc[n+]([Os-]2[c]3ccccc3-c3csc[n+]32)c1.O=[N+]([O-])[O-]` [Compound 4a, [((3-κN)-1-Methylimidazole)(4-phenylthiazolato-κN,κC2′)(η^6-p-cymene)osmium(II)] Nitrate], the IC50 in data set [7] came to 9.6 ± 1.2 µM; in data set [1], 2.3 ± 0.2 µM; in data set [2] it was 12 ± 1 µM; in data set [3], 5.9 ± 1.9 µM; in [8] it was 9.4 ± 4.6 µM. In addition, the “Effect on intracellular ROS levels” value in the data set with SW480 cells is given as “initially lowers ROS levels”.
Consider `CC(C)(C)OO` [positive control, tert-butyl hydroperoxide, reference compound], for which the “Elevation of ROS levels vs negative control” value in the data set on SW480 cells (positive control) was “more than 3 fold”.
`COc1ccc(-c2cscn2)[c]([Ru][Cl])c1.Cc1ccc(C(C)C)cc1` [Compound 1e]: the IC50 in data set [4] is 27 µM; in data set [5], 17 µM; in [6], 7.3 µM.
As to `Cc1ccc(C(C)C)cc1.Cc1ccc2[c](c1)[Ru-]([n+]1ccn(C)c1)[n+]1cscc1-2.O=[N+]([O-])[O-]` [Compound 3d, [((3-κN)-1-Methylimidazole)(4-(4-methylphenyl)thiazolato-κN,κC2′)(η^6-p-cymene)ruthenium(II)] Nitrate], the “Stabilization of oligonucleotides (G4s or B-DNA)” value in data set [9] is “No stabilization”. Besides, the Solubility in “Solubility in 1% DMF/PBS” came out at 8.92 mM. For the same molecule, in the data set on SW480 cancer cells, the “Cellular accumulation, fg Ru/cell” value is 477 ± 47 fg Ru/cell. Further, the IC50 came out at 1.61 ± 0.04 µM in data set [1], 7.2 ± 1 µM in [2] and 3.8 ± 0.3 µM in data set [3].
Turning to `Cc1ccc(C(C)C)cc1.Cn1cc[n+]([Os-]2[c]3cc(S(C)(=O)=O)ccc3-c3csc[n+]32)c1.O=[N+]([O-])[O-]` [Compound 4c, [((3-κN)-1-Methylimidazole)(4-(4-(methylsulfonyl)phenyl)thiazolato-κN,κC2′)(η^6-p-cymene)osmium(II)] Nitrate], the IC50 in data set [7] was over 200 µM; in data set [1], over 200 µM; in [2], over 200 µM; in data set [3], over 200 µM; in [8], 344 ± 19 µM. Also, the “Effect on intracellular ROS levels” value in the data set with SW480 cells was “initially lowers ROS levels”.
As to `Cc1ccc(C(C)C)cc1.Cn1cc[n+]([Os-]2[c]3cc(F)ccc3-c3csc[n+]32)c1.O=[N+]([O-])O` [Compound 4b, [((3-κN)-1-Methylimidazole)(4-(4-fluorophenyl)thiazolato-κN,κC2′)(η^6-p-cymene)osmium(II)] Nitrate], the results for the IC50 in data set [1], in data set [2] and in data set [3] were 2.7 ± 0.2 µM, 20 ± 2 µM and 7.4 ± 2.3 µM, respectively.
As for `Cc1ccc(-c2cscn2)[c]([Os][Cl])c1.Cc1ccc(C(C)C)cc1` [Compound 2d], the IC50 in data set [4] is 17 µM; in data set [5] it was 9.3 µM; in [6], 3.7 µM.
